According to article PMC5114727, “Biological characterization of chemically diverse compounds targeting the Plasmodium falciparum coenzyme A synthesis pathway” (Parasites & Vectors, 2016):
Several values for one entry are separate records, joined by “and”; a condition that tells them apart may be missing. Equal values may be shown once.

Columns and labels:
3T3 cells = assay: 3T3 host cell cytotoxicity (part of T. cruzi amastigote image-based assay); design: species or system mouse; conditions: bound = highest concentration with < 50 % inhibition; read-out: 3T3 cytotoxicity IC50 ± SEM
Source text: (§1) An initial indication of compound selectivity over human cells had previously been obtained through comparison of the compounds’ IC50 values against P. falciparum asexual stages and HEK293 [22]. In the present study, the selectivity investigation was extended to a small panel of human cancer cell lines, namely the estrogen receptor (ER)-positive breast cancer cell line MCF7, the ER-negative MDA-MB-231, as well as the human prostate cancer line, PC-3. Additionally, the cytotoxic effects on mouse embryonic fibroblast cell line 3T3, which serves as the host cell for T. cruzi in our image-based amastigote assay, were investigated.
(§2) Cytotoxicity of the compounds was assessed against a panel of human cancer cell lines, namely the estrogen receptor (ER)-positive breast cancer cell line MCF7, the ER-negative MDA-MB-231 and the prostate cancer line PC-3. All the cell lines were purchased from ATCC and maintained as previously described. Two biological replicates consisting of two technical replicates each were performed to generate concentration response curves (CRC) with a final highest concentration of 40 μM. A resazurin-based assay was utilized to determine cell viability as described earlier. Additionally, the cytotoxic effects on the mouse embryonic fibroblast cell line 3T3 were assessed as part of the Trypanosoma cruzi amastigote image-based assay as outlined in [35].

T. cruzi trypomastigotes = assay: T. cruzi trypomastigote PrestoBlue assay; format: cell-based, Trypanosoma cruzi; conditions: for T. cruzi trypomastigote percent inhibition at the highest concentration tested: 40 µM, given if an IC50 could not be calculated
Experimental: Compound activity against T. cruzi trypomastigotes was assessed in two independent experiments, without technical repeats, at a final highest compound concentration of 40 μM in concentration-response PrestoBlue assay, as previously described.

[1] = tested on: P. falciparum asexual blood stages / early gametocytes; assay: Chemical rescue of MMV000570 (Table S3B; PfAS and PfEG replicates, columns not assignable); format: cell-based, Plasmodium falciparum; conditions: stage and replicate not assignable
Experimental: (§3) An imaging based assay was utilised to assess the chemical rescue on asexual stages of P. falciparum as described previously. All the pathway intermediates were purchased from Sigma. CoA and dP-CoA were dissolved in sterile distilled water to obtain a 20 mM stock solution, which was then aliquoted and stored at -20 °C until use. […] Each pathway intermediate was tested on the parasites at a range of concentrations to assess potential toxicity. […] On early stage P. falciparum gametocytes the same concentrations as for CoA were tested for dP-CoA; against asexual blood stage P. falciparum, late stage gametocytes and Trypanosoma b. brucei five dP-CoA concentrations were tested (2 mM, 1.5 mM, 1 mM, 0.75 mM and 0.5 mM).
(§4) The same concentration ranges of the CoA pathway intermediates were supplemented to parasites treated with the experimental compounds. […] The negative control used in each assay was 0.4% DMSO, whilst the positive control was 2 μM artemisinin for asexual P. falciparum blood stages and 5 μM puromycin for all gametocyte stages and T. b. brucei. The percentage growth of the respective parasites following compound treatment was determined using Microsoft ® Excel 2010, and compared with their controls. All rescue assays were performed as two independent experiments each in duplicate point.

MDA-MB-231 cells = assay: Resazurin cytotoxicity assay, MDA-MB-231; format: cell-based, human
Source text: as §1, §2

T. cruzi amastigotes = assay: T. cruzi amastigote image-based assay in 3T3 host cells; format: cell-based, Trypanosoma cruzi; conditions: 40 µM per footnote; given if an IC50 could not be calculated
Experimental: The next step taken was to determine whether the activity of the compounds was confined to P. falciparum, or whether it extended to other protozoan parasites. Compound activity against two members of another clinically important group of parasites, the kinetoplastids T. cruzi and T. b. brucei was determined. The sensitive high content imaging assay used to determine compound activity against T. cruzi assesses the intracellular amastigote life form of the parasite in the 3T3 host cell. It is important to simultaneously assess compound activity against 3T3 cells to determine potential cytotoxicity against the host cell line, since this could result in a false positive outcome. The T. b. brucei assay employs the REDOX indicator Alamar Blue to assess viability, which was developed into a 384-well assay format.
Compound activity against T. cruzi amastigotes was assessed in an image-based assay in single point concentration-response and three biological replicates, at a final highest compound concentration of […], as previously described.

HEK293 cells = conditions: as previously reported; read-out: HEK293 cytotoxicity IC50 ± SEM; cited from earlier work
PC-3 cells = assay: Resazurin cytotoxicity assay, PC-3; format: cell-based, human
Source text: as §1, §2

[2] = tested on: P. falciparum asexual blood stages (PfAS); assay: Chemical rescue with CoA pathway intermediates, asexual stages; format: cell-based, Plasmodium falciparum; conditions: for Percent rescue ± SEM by CoA, PfAS: CoA 0.8 mM; for Percent rescue ± SEM by CoA, PfAS / Percent rescue ± SEM by dephospho CoA, PfAS / Percent rescue ± SEM by pantethine, PfAS / Percent rescue ± SEM by pantothenate, PfAS: inhibitor at IC80; for Percent rescue ± SEM by dephospho CoA, PfAS: dP-CoA 0.8 mM; for Percent rescue ± SEM by pantethine, PfAS: pantethine 125 μM; for Percent rescue ± SEM by pantothenate, PfAS: pantothenate 300 μM
Experimental: (§5) Pantothenate is the first substrate of the pathway (Fig. 1) and its addition was intended to rescue the action of possible competitive inhibitors of the first enzyme, PanK. […] It is not known, whether P. falciparum is capable of pantetheine phosphorylation for utilization in CoA synthesis. […] Finally, the rescue ability of dP-CoA, the final substrate of CoA synthesis, was tested. […] Inhibitors competing with dP-CoA for DPCK binding were expected to be displaced, thereby rescuing parasite survival, by dP-CoA supplementation in a concentration dependent manner.
as §3
as §4, with “compounds. The inhibitors were used at their respective final assay concentration of IC80 (as determined previously in the corresponding P. falciparum development stage or T. b. brucei assay).” for “compounds.”

[3] = tested on: T. b. brucei trypomastigote; assay: T. b. brucei resazurin (Alamar Blue) viability assay; format: cell-based, Trypanosoma brucei brucei; conditions: for IC50: highest concentration 40 μM, read-out: T. b. brucei trypomastigote IC50 ± SEM
Experimental: Compound activity against two members of another clinically important group of parasites, the kinetoplastids T. cruzi and T. b. brucei was determined. The sensitive high content imaging assay used to determine compound activity against T. cruzi assesses the intracellular amastigote life form of the parasite in the 3T3 host cell. […] The T. b. brucei assay employs the REDOX indicator Alamar Blue to assess viability, which was developed into a 384-well assay format.
Compound activity against T. b. brucei was assessed in a resazurin-based viability assay in concentration-response assays, without technical repeats, in two experimental replicates at a highest concentration of 40 μM, as previously described.

MCF7 cells = assay: Resazurin cytotoxicity assay, MCF7; format: cell-based, human
Source text: as §1, §2

[4] = tested on: late stage gametocytes (stage IV to V) of P. falciparum line NF54^Pfs16; assay: Gametocyte luciferase assay, late stage; format: cell-based, Plasmodium falciparum
Source text: (§6) To investigate a potential role of CoA biosynthesis for host to vector transmission of the malaria parasite, we investigated the activity of our compounds on P. falciparum gametocytes, the sexual stages of P. falciparum, essential for malaria transmission. […] Parasite stage-specificity and gametocytocidal activity of the compounds was therefore investigated, utilizing a luciferase-based approach on early stage (development from stage I to IIb/III [30]) and late stage (IV to V [51]) gametocytes.
(§7) Induction of P. falciparum gametocyte differentiation and gametocyte culturing were performed as previously described. Compound activity against early stage gametocytes (covering the development from stage I to IIb/III) and late stage gametocytes (stage IV to V) of the recombinant P. falciparum line NF54^Pfs16 was assessed in concentration-response assays, in two experimental replicates consisting of two technical repeats each, at a highest concentration of 40 μM, as described earlier.

[5] = tested on: early stage gametocytes (stage I to IIb/III) of P. falciparum line NF54^Pfs16; conditions: cited from earlier work
[6] = tested on: P. falciparum asexual blood stage; conditions: cited from earlier work; for IC50: as previously reported, read-out: Asexual P. falciparum IC50 ± SEM
[7] = molecular target: early stage gametocytes (stage I to IIb/III) of P. falciparum line NF54^Pfs16; assay: Gametocyte luciferase assay, early stage; format: cell-based, Plasmodium falciparum; conditions: highest concentration 40 μM; read-out: Early stage gametocyte IC50 ± SEM
Source text: as §6, §7

[8] = tested on: panel of human cancer cell lines (MCF7, MDA-MB-231, PC-3); assay: Cytotoxicity across the panel of cell lines; format: cell-based
Source text: as §1, §2

[9] = tested on: P. falciparum early stage gametocytes (PfEG, stage I-III); assay: Chemical rescue with CoA pathway intermediates, early stage gametocytes; format: cell-based, Plasmodium falciparum; conditions: inhibitor at IC80
Experimental: as §5, §3, §4

[10] = tested on: P. falciparum developmental stages; assay: Activity across all P. falciparum life-cycle stages tested (asexual, early and late gametocytes); format: cell-based, Plasmodium falciparum; conditions: early and late stage gametocytes
Experimental: as §7

[11] = 40 µM, given if an IC50 could not be calculated

CCc1ccc(Nc2cc(C)c3ccc(O)cc3n2)cc1.Cl [MMV000570]
IC50 (3T3 cells): > 40 µM | T. cruzi trypomastigote percent inhibition at the highest concentration tested (T. cruzi trypomastigotes): 100% | percent rescue averages ± SEM by CoA, tested at IC80 concentration [1]: 6.4% and 8.1% and -1.6% and 26.7% | percent rescue averages ± SEM by pantothenate, tested at IC50 concentration [1]: 3.5% and -0.6% and 4.3% and 28.6% | percent rescue averages ± SEM by pantothenate, tested at IC80 concentration [1]: 3.1% and 2.2% and 2.3% and 5.2% | MDA-MB-231 percent inhibition at the highest concentration tested (MDA-MB-231 cells; 40 µM): 90% | T. cruzi amastigote percent inhibition at the highest concentration tested (T. cruzi amastigotes): 96% | IC50 (HEK293 cells): ~40 µM | PC-3 percent inhibition at the highest concentration tested (PC-3 cells; 40 µM): 98% | Rescue of growth inhibitory effect by any of the intermediates (in words) ([2]; compound at 1 μM): could not effectively be rescued by any of the intermediates | IC50 [3]: 5.85 ± 1.11 µM | MCF7 percent inhibition at the highest concentration tested (MCF7 cells; 40 µM): 96%

COc1ccc2c(=O)cc(C(Cl)(Cl)Cl)oc2c1 [MMV665820]
Late stage gametocyte percent inhibition at the highest concentration tested [4, 11]: 69% | T. cruzi trypomastigote percent inhibition at the highest concentration tested (T. cruzi trypomastigotes): 100% | inhibition against early stage gametocytes in earlier dose-response ([5]; 1 μM): about 50% | inhibition plateau level of the concentration-response curve, MDA-MB-231 (MDA-MB-231 cells): 43% | IC50 [6]: 0.58 ± 0.08 µM | plateau of P. falciparum growth inhibition ([6]; asexual blood stage): 100% | T. cruzi amastigote percent inhibition at the highest concentration tested (T. cruzi amastigotes): 62% | inhibition plateau level of the concentration-response curve, PC-3 (PC-3 cells): 80% | Percent rescue ± SEM by CoA, PfAS [2]: 113.3 ± 12.3% | Percent rescue ± SEM by dephospho CoA, PfAS [2]: 88.6 ± 18.3% | Percent rescue ± SEM by pantethine, PfAS [2]: No | Percent rescue ± SEM by pantothenate, PfAS [2]: No | IC50 [3]: 2.5 µM | IC50 [7]: 0.44 ± 0.03 µM | IC50 ([8]; MCF7, MDA-MB-231, PC-3, read-out: IC50 range against the cancer cell lines): 0.27 to 0.43 µM | Percent rescue ± SEM by pantethine, PfEG ([9]; pantethine 10 mM): No | Percent rescue ± SEM by pantothenate, PfEG ([9]; pantothenate 625 μM): No

OC1CCCCC1C1(NC(=S)Nc2ccccc2)CCCCC1 (centres unmarked) [MMV665980]
IC50 ([4]; highest concentration 40 μM, read-out: Late stage gametocyte IC50 ± SEM): 4.15 ± 0.56 µM | IC50 (3T3 cells): > 40 µM | IC50 (T. cruzi trypomastigotes; highest concentration 40 μM, read-out: T. cruzi trypomastigote IC50 ± SEM): 4.42 ± 0.89 µM | gametocytocidal activity in earlier screen versus hit threshold (in words) ([5]; screening concentration 5 μM, threshold 50% activity): lower than the hit threshold | activity against all P. falciparum development stages tested (in words) [10]: moderate, single digit micromolar activity | IC50 (MDA-MB-231 cells; highest concentration 40 μM, bound = highest concentration with < 50 % inhibition, read-out: MDA-MB-231 cytotoxicity IC50 ± SEM): > 40 µM | IC50 [6]: 6.31 ± 1.06 µM | T. cruzi amastigote percent inhibition at the highest concentration tested (T. cruzi amastigotes): 70% | IC50 (HEK293 cells): > 40 µM | IC50 (PC-3 cells; highest concentration 40 μM, bound = highest concentration with < 50 % inhibition, read-out: PC-3 cytotoxicity IC50 ± SEM): > 20 µM | Percent rescue ± SEM by CoA, PfAS [2]: 54.4 ± 2.5% | Percent rescue ± SEM by dephospho CoA, PfAS [2]: 46.0 ± 2.6% | Percent rescue ± SEM by pantethine, PfAS [2]: No | Percent rescue ± SEM by pantothenate, PfAS [2]: No | T. b. brucei trypomastigote percent inhibition at the highest concentration tested [3, 11]: 100% | IC50 [7]: 7.54 ± 0.39 µM | IC50 (MCF7 cells; highest concentration 40 μM, bound = highest concentration with < 50 % inhibition, read-out: MCF7 cytotoxicity IC50 ± SEM): > 40 µM | cytotoxicity against any of the cell lines investigated (in words) ([8]; up to the highest tested concentration of 40 μM): no or only negligible cytotoxicity
